# Results from ChEMBL document CHEMBL1131057, “Peptidomimetic growth hormone secretagogues. Design considerations and therapeutic potential” (J Med Chem, 1998).
# Where a SMILES comes first, the peptide text is derived from it. [ ]: non-standard residue; d: D form. d2Nal = N[C@H](Cc1ccc2ccccc2c1)C(=O)O
# Legend:
# [1] = Clearance rate was evaluated in rats; assay type: ADME, organism-based; conditions: rat, in vivo; read-out: Clearance rate
# [2] = Half-life was evaluated in rats; assay type: ADME, organism-based; conditions: rat, in vivo
# [3] = test system: Rattus norvegicus; assay: Compound was measured as maximal GH release which showed iv potency and efficacy; assay type: functional, organism-based
# [4] = target: T1, Growth hormone secretagogue receptor type 1 (Homo sapiens, UniProt Q92847); assay: Compound was evaluated for GH release for effect on human GH secretagogue receptor; assay type: functional
# [5] = organism: Rattus norvegicus; assay: compound was evaluated for GH release in rat; assay type: functional, organism-based
# [6] = organism: Rattus norvegicus; assay: compound was evaluated for GH release in the rat pituitary cell culture assay; assay type: functional; conditions: Pituitary gland cell
# [7] = target: T1, Growth hormone secretagogue receptor type 1; assay: Inhibitory concentration (biotinylated probe) is evaluated for [35S]- MK-0677 binding
# [8] = organism: Rattus norvegicus; assay: Compound measured for stimulated GH release; assay type: functional, organism-based
# [9] = organism: Rattus norvegicus; assay: compound was evaluated for GH release in the rat; 10-30 ng/mL; assay type: functional, organism-based
# [10] = target: T2, Oxytocin receptor (Homo sapiens, UniProt P30559); assay: Antagonistic activity against Oxytocin receptor; assay type: functional
# T2 sequence (P30559 whole entry): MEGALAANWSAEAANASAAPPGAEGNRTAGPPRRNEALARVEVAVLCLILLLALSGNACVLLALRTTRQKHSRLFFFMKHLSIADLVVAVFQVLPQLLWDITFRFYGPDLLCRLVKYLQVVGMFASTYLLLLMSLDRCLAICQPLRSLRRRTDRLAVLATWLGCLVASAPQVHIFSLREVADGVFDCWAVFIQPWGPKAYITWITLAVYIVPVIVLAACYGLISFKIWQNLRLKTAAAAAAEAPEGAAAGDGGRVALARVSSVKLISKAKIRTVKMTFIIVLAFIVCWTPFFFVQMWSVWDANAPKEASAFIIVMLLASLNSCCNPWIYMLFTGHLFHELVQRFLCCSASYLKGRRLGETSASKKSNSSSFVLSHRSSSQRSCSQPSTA
# [11] = organism: Rattus norvegicus; assay: In vitro efficacy was evaluated for growth hormone release
# [12] = test system: Rattus norvegicus; assay: In Vivo efficacy was evaluated for growth hormone release; assay type: functional, organism-based
# [13] = organism: Homo sapiens; assay: compound was evaluated for GH release; assay type: functional, organism-based
# [14] = test system: Rattus norvegicus; assay: Potency measured in an anesthetized rat model; assay type: functional, organism-based
# [15] = test system: Rattus norvegicus; assay: Compound was tested for effective dose rquired for GH release following iv administration to 4-week old anesthetized Sprague-Dawley rats; assay type: functional
# [16] = test system: Canis familiaris; assay: Loss of body weight in dog is evaluated after compound was administered perorally to dog at a dose 5 mg/kg, once daily (control (wt) = 1.13+/-0.19); assay type: functional, Canis lupus familiaris; conditions: route oral
# [17] = organism: Sus scrofa; assay: Compound was measured for IGF-1 increases in swine on days 4, 7, 10, and 14 approximately; assay type: functional
# [18] = organism: Sus scrofa; assay: Compound was measured for elevated mean plasma IGF-1 (insulin like growth factor) concentrations in Swine; assay type: functional, organism-based
# [19] = The intrinsic potency studied extensively in animals; assay type: functional
# [20] = Half-life period measured in dog; assay type: ADME, organism-based, Canis lupus familiaris; conditions: in vivo
# [21] = Oral bioavailability measured in dogs; assay type: ADME, organism-based, Canis lupus familiaris; conditions: dog, in vivo
# [22] = Half-life period measured in dogs; assay type: ADME, organism-based, Canis lupus familiaris; conditions: dog, in vivo
# [23] = organism: Canis familiaris; assay: Compound is evaluated for elevated GH in beagles with peroral dose; assay type: functional; conditions: Canis lupus familiaris, po
# [24] = test system: Canis familiaris; assay: Compound is evaluated for elevated GH in beagles with intravenous dose; assay type: functional; conditions: Canis lupus familiaris
# [25] = organism: Sus scrofa; assay: Limited capacity to porcine pituitary membranes was evaluated; assay type: functional
# [26] = organism: Rattus norvegicus; assay: In Vitro evaluation for growth hormone release from the pituitary incubates; assay type: functional
# [27] = organism: Rattus norvegicus; assay: The concentration of binding sites was evaluated; assay type: functional
# [28] = organism: Rattus norvegicus; assay: Compound was evaluated for binding affinity, which binds with high affinity to membranes isolated from rat hypothalamus; assay type: functional
# [29] = organism: Rattus norvegicus; assay: compound was evaluated for GH release in the rat; assay type: functional, organism-based
# T1 sequence (Q92847 whole entry): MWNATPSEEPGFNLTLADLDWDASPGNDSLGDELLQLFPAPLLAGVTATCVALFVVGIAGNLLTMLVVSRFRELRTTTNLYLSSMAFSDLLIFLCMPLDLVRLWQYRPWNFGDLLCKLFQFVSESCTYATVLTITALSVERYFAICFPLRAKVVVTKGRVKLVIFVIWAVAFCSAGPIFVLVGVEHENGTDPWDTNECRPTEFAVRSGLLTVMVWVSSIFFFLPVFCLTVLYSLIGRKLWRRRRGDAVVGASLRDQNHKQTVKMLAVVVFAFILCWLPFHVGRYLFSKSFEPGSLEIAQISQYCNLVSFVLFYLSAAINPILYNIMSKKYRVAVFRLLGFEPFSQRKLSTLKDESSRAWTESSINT
compound,measurement,setting,value
C[C@H](NC(=O)[C@@H](Cc1c[nH]c2ccccc12)NC(=O)CCc1c[nH]cn1)C(=O)N[C@@H](Cc1c[nH]c2ccccc12)C(=O)N[C@H](Cc1ccccc1)C(=O)N[C@H](CO)CCCCN,clearance,[1],39 mL/min/kg
same,half-life,[2],0.183 h
same,EC50,[3],5 nM
NC(=O)CN(CCc1ccccc1)C(=O)[C@@H](Cc1ccc2ccccc2c1)NC(=O)[C@@H](Cc1ccc2ccccc2c1)NC(=O)C1CCNCC1,EC50,[4],0.34 nM
C[C@H](N)C(=O)N[C@@H](Cc1c[nH]cn1)C(=O)N[C@H](Cc1ccc2ccccc2c1)C(=O)N[C@@H](C)C(=O)N[C@@H](Cc1c[nH]c2ccccc12)C(=O)N[C@H](Cc1ccccc1)C(=O)N[C@@H](CCCCN)C(N)=O (H-AH[d2Nal]AW[dF]K-NH2),EC50,[5],6 nM
CCOC(=O)[C@]1(Cc2ccccc2)CCCN(C(=O)[C@@H](Cc2c[nH]c3ccccc23)NC(=O)C(C)(C)N)C1,EC50,[6],1.6 nM
CC(C)(N)C(=O)N[C@H](COCc1ccccc1)C(=O)N1CCC2(CC1)CN(S(=O)(=O)CC(=O)NCCCCCCNC(=O)CCCC[C@@H]1SCC3NC(=O)NC31)c1ccccc12 (stereo not given in full),IC50,[7],0.2 nM
same,EC50,[8],2.5 nM
C[C@H](NC(=O)[C@H](Cc1c[nH]c2ccccc12)NC(=O)[C@@H](N)Cc1ccc(O)cc1)C(=O)N[C@@H](Cc1c[nH]c2ccccc12)C(=O)N[C@H](Cc1ccccc1)C(N)=O,Concentration,[9],30 ng/mL
CC(C)(N)C(=O)N[C@H](Cc1c[nH]c2ccccc12)C(=O)N1CCC[C@]2(CC(=O)c3ccccc3O2)C1,EC50,[6],1.8 nM
CC1(C)C2CCC1(CS(=O)(=O)N1CCC3(CCc4ccccc43)CC1)C(NC(=O)C1CCCNC1)C2 [L-368112],IC50,[10],68 nM
same,EC50,[11],300 nM
CC(C)(N)CC(=O)NC1CCc2ccccc2N(Cc2ccc(-c3ccccc3C(=O)O)cc2)C1=O (stereo not given),EC50,[12],3000 nM
C[C@@H]1NC(=O)[C@H](Cc2ccc3ccccc3c2)NC(=O)[C@@H](N)CCCCNC(=O)CC[C@H](C(=O)N[C@@H](CCCCN)C(N)=O)NC(=O)[C@@H](Cc2ccccc2)NC(=O)[C@@H](Cc2c[nH]c3ccccc23)NC1=O,EC50,[13],0.43 nM
CC(C)(N)C(=O)N[C@H](Cc1c[nH]c2ccccc12)C(=O)N1CCc2ccc(S(N)(=O)=O)cc2C1,EC50,[6],3 nM
C[C@H](NC(=O)[C@@H](Cc1c[nH]c2ccccc12)NC(=O)[C@@H](N)Cc1c[nH]cn1)C(=O)N[C@@H](Cc1c[nH]c2ccccc12)C(=O)N[C@@H](CN[C@H](CO)CCCCN)Cc1ccccc1,EC50,[14],0.5 nM
Cc1ccc(S(=O)(=O)Nc2ccc3c(c2)CCN(C(=O)[C@@H](Cc2c[nH]c4ccccc24)NC(=O)C(C)(C)N)C3)cc1,EC50,[6],3 nM
same,ED50,[15],> 10 mg/kg
CC(C)(N)C(=O)N[C@H](CCCc1ccccc1)C(=O)N1CCC2(CC1)CN(S(C)(=O)=O)c1ccccc12,Body weight,[16],0.21 kg
same,Increase,[17],60%
same,Plasma concentration,[18],62%
same,EC50,[19],1.5 nM
CCOC(=O)[C@H]1CC2(CCN(C(=O)[C@@H](CCCc3ccccc3)NC(=O)C(C)(C)N)CC2)c2ccccc21,half-life,[20],1.7 h
same,EC50,[6],1.9 nM
CN(C)S(=O)(=O)c1ccc2c(c1)CN(C(=O)[C@@H](Cc1c[nH]c3ccccc13)NC(=O)C(C)(C)N)CC2,EC50,[6],30 nM
same,ED50,[15],3 mg/kg
CC(C)(N)C(=O)N[C@H](COCc1ccccc1)C(=O)N1CCC2(CC1)CN(S(C)(=O)=O)c1ccccc12 [IBUTAMOREN],bioavailability,[21],> 60%
same,half-life,[22],4.7 h
same,MED,[23],0.125 mg/kg
same,MED,[24],0.025 mg/kg
same,Bmax (fM (mg of protein)-1),[25],8
same,EC50,[26],1.3 nM
same,Bmax,[27],8 fmol/mg
same,Kd,[28],0.17 nM
NCCCC[C@H](NC(=O)[C@H](Cc1ccccc1)NC(=O)[C@@H](Cc1ccc2ccccc2c1)NC(=O)[C@@H](Cc1ccc2ccccc2c1)NC(=O)C1CCNCC1)C(N)=O,EC50,[29],0.18 nM
